Test results taken from patent US9133134B2, “Inhibitors of bruton's tyrosine kinase” (Pharmacyclics, Inc., priority 2012, dated 2015).

Target: human BTK (Homo sapiens (Human), UniProt Q06187)
Test: Btk enzymatic kinase assay (electrophoretic mobility shift assay)
Format: biochemical
Conditions: recombinant full-length human BTK 1 nM, ATP 16 μM, peptide substrate 1 μM, one hour incubation
Experimental: Kinase activity is measured in vitro using electrophoretic mobility shift assay. The kinase reactions are assembled in a total volume of 25 μL in 384 well plates. […] The reaction is incubated for one hour and is quenched by the addition of 45 μL of termination buffer (100 mM HEPES, pH7.5, 0.01% Triton X-100, 30 mM EDTA). The terminated reactions are analyzed using 12 channel LabChip® 3000 microfluidic detection instrument (Caliper Life Sciences). […] Change in the relative fluorescence intensity of the substrate and product peaks is the parameter measured, reflecting enzyme activity. In the presence of an inhibitor, the ratio between product and substrate is altered: the signal of the product decreases, while the signal of the substrate increases.
Activity in each sample is determined as the product to sum ratio (PSR): P/(S+P), where P is the peak height of the product peptide and S is the peak height of the substrate peptide. For each compound, enzyme activity is measured at various concentrations (12 concentrations of compound spaced by 3× dilution intervals). […] Percent inhibition (Pinh) is determined using following equation: […]
The IC50 values of inhibitors are determined by 4 parameter sigmoidal dose-response model fitting of the inhibition curves (Pinh versus inhibitor concentration) using XLfit 4 software.

human BTK, sequence (Q06187 whole entry): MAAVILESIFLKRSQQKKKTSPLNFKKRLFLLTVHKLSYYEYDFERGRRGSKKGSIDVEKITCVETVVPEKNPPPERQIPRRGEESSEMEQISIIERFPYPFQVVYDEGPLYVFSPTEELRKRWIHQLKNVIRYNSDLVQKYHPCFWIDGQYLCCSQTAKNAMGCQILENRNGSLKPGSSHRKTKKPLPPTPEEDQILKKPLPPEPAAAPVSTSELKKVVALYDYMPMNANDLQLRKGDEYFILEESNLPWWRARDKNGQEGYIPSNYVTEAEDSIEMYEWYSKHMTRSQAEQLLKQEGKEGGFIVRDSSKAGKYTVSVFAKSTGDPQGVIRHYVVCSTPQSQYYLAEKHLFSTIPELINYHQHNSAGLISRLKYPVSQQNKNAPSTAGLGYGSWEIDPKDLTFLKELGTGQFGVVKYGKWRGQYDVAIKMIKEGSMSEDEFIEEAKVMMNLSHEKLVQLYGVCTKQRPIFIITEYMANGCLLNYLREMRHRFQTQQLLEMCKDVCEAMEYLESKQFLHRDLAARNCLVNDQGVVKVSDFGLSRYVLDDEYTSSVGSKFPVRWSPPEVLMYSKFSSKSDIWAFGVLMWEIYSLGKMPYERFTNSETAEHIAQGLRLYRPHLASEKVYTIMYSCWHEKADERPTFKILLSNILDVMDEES

IC50: < 0.5 µM
SMILES: COCCOc1ccc(Nc2ncc(F)c(Nc3cccc(NC(=O)C(O)CO)c3)n2)cc1 (stereo not shown) [Compound 4, N-(3-(5-fluoro-2-(4-(2-methoxyethoxy)phenylamino)pyrimidin-4-ylamino)phenyl)-2,3-dihydroxypropanamide]
